Results published in patent publication US8809354B2, “3-amino-2-(4-nitrophenyl)-4-(3H)-quinazolinone or derivatives thereof for treating or preventing antiviral infections” (priority 2011, dated 2014).

Assays:
[1] = tested on: HCV 3a genotype in MDBK cells; assay: Synergy with interferon-α against HCV in MDBK cells (real time Quantitative RT-PCR); format: cell-based, hepatitis C virus; settings: with interferon-α 5 IU/well, 6 hrs pre-incubation, HCV 3a 2×10^4 copies per well, 18 hrs
Description: Surprising synergism was recorded when Compound 1 was combined with Interferon alpha. […] MDBK cells were incubated for 6 hrs with compounds and interferon alone, or combination of compound and interferon in a 96-well plat. After 6 hrs cells were infected with 2×10^4 copies of HCV 3a genotype per well and incubated for additional 18 hrs. At the end of incubation period, total RNA was extracted by Gentra kit, and the levels of HCV RNA remaining were determined, by real time Quantitative RT-PCR assay and are shown as percentage of HCV RNA survival in cells. Results are represented as the average and standard error for three independent experiments.

[2] = tested on: HCV sub-genomic replicon in FCA 4 cells; format: cell-based, hepatitis C virus
Description: FCA-4 sub genomic replicon was bicistronic construct composed of the HCV IRES (nucleotides 1 to 377 of the 5′NCR); the neomycin phosphotransferase (neo) gene; the encephalomyocarditis IRES, which mediates the translation of HCV nonstructural proteins NS3 through NS5; and the 3′NCR as shown in FIG. 2. […] FCA-4 sub-genomic replicon consists of single adaptive mutation and a deletion of a serine residue at position 1176 (Guo et al, 2001).
The bicistronic RNA molecule contains the HCV IRES and a few core-coding sequences, which are followed by neomycin phosphotransferase gene (Neor). These sequences are followed by the encephalomyocarditis virus IRES placed in front of HCV sequences encoding nonstructural protein NS3 to NS5B, terminating at the HCV 3NCR.
To determine the antiviral effect against HCV, FCA 4 cells were seeded in six well plates. After 24 h, media containing 20 μM of test compound was added to the plates. Cells were incubated at 37° C. in CO2 incubator for additional 48 h. At the end of the incubation, cells were harvested, RNA was extracted and cDNA were generated by oligo dT priming. cDNA was amplified by PCR using primers specific to the 5′UTR and NS5B gene of HCV. Amplification of GAPDH mRNA served as an internal control. […]

HCV = settings: Ribavirin alone, cited from earlier work
HCV protease = HCV protease (Hepatitis C virus genotype 1a, UniProt P26664); settings: SDS-PAGE and autoradiography assay; cited from earlier work
Sequence of HCV protease (P26664 1027-1657): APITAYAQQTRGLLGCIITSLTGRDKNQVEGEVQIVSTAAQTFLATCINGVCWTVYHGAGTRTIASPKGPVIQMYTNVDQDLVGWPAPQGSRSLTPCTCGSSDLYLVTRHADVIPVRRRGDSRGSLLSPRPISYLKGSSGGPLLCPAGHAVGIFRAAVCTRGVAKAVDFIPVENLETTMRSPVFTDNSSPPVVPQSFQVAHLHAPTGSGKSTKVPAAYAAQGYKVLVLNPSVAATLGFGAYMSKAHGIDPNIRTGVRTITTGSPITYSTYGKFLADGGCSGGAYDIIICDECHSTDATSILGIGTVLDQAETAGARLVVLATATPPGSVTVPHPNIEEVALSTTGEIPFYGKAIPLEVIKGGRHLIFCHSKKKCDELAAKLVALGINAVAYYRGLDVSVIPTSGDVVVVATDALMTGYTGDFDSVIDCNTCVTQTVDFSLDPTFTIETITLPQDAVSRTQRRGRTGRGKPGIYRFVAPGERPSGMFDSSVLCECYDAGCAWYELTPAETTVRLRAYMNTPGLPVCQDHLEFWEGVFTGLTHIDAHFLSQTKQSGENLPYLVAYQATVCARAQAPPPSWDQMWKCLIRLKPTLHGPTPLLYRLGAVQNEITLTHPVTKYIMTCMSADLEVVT

Nn1c(-c2ccc([N+](=O)[O-])cc2)nc2ccccc2c1=O [Compound 1, 3-amino-2-(4-nitrophenyl)-4-(3H)-quinazolinone]
Antiviral activity in combination with interferon-α (HCV RNA survival) [1]: synergistic effect
Cytotoxicity in relation to antiviral suppression [2]: independent of cytotoxicity
HCV RNA expression ([2]; 20 μM, 48 h, PCR with primers for 5′UTR and NS5B): inhibited HCV RNA expression significantly

NC(=O)c1ncn([C@@H]2O[C@H](CO)[C@@H](O)[C@H]2O)n1 [Ribavirin, 1-β-D-ribofuranosyl-1-1,2,4-triazole-3-carboxamide]
Serum levels of HCV-RNA (HCV; patients): does not lower
Patients in whom serum amino transferase levels are reduced to normal (HCV): 40%

CCCC(=O)c1cc2c(c(O)c1C)C(=O)C(=O)c1c(O)cccc1-2 [Sch 68631]
Activity against HCV protease (HCV protease): micromolar activity
